± gives the standard deviation of the averaged measurements.
How the values were obtained:
[1] = test system: Homo sapiens (human subject panel, olfactory perception); test: perceived odor pleasantness rating (rating 0-100); higher = more pleasant
Method in brief: (§1)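 Stimuli were molecules diluted in paraffin oil at high and low concentrations, with 1 mL of each sniffed in randomized order across ten visits of 100 stimuli. Participants were 55 healthy humans aged 18–50, excluding the six lowest performers. Subjects who smelled a stimulus moved a computerized slider away from its starting point of 50, and positions were rescaled to 0–100. Familiarity, intensity and pleasantness are each reported as an average over subjects.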

[2] = test system: Homo sapiens (human subject panel, olfactory perception); test: perceived odor familiarity rating (rating 0-100); higher = more familiar
Method in brief: as §1

[3] = test system: Homo sapiens (human subject panel, olfactory perception); test: perceived odor intensity rating (rating 0-100); higher = stronger perceived smell
Method in brief: as §1

[4] = odor dilution in paraffin oil: 1/10
[5] = odor dilution in paraffin oil: 1/1,000
[6] = odor dilution in paraffin oil: 1/100,000
[7] = odor dilution in paraffin oil: 1/10,000,000

Structure (SMILES)	perceived odor pleasantness rating [1, 4]	perceived odor pleasantness rating [1, 5]	perceived odor familiarity rating [2, 4]	perceived odor familiarity rating [2, 5]	perceived odor intensity rating [3, 4]	perceived odor intensity rating [3, 5]	perceived odor pleasantness rating [1, 6]	perceived odor familiarity rating [2, 6]	perceived odor intensity rating [3, 6]	perceived odor pleasantness rating [1, 7]	perceived odor familiarity rating [2, 7]	perceived odor intensity rating [3, 7]
CCCCCCCCCCCC(=O)O [Lauric acid]	28.7 ± 20	45.8 ± 25	49.1 ± 34	37.4 ± 33	71.6 ± 27	25.3 ± 24						
O=C(/C=C/C=C/c1ccc2c(c1)OCO2)N1CCCCC1 [Piperine]	51.5 ± 26	44.9 ± 29	49.2 ± 31	20.9 ± 26	54.1 ± 29	19.4 ± 27						
CCCCCCCC(=O)OCC [Ethyl octanoate]		66.2 ± 22		52.7 ± 33		54.7 ± 29	61.9 ± 22	52 ± 29	46.7 ± 31			
Cc1ccco1 [2-Methylfuran]							52.6 ± 21	36.9 ± 27	25.1 ± 29	39.4 ± 22	38.5 ± 24	28.9 ± 27
COc1ccccc1O [Guaiacol]							41.6 ± 26	47.3 ± 31	61.8 ± 28	40.9 ± 25	39.4 ± 28	48.6 ± 32
CCCCCCC1CCC(=O)O1 (stereo unspecified) [gamma-decalactone]		64.9 ± 27		51.5 ± 32		54 ± 28	61.4 ± 20	46.4 ± 30	33.2 ± 28			
CC=O [acetaldehyde]		45 ± 22		37.4 ± 29		40.5 ± 31	54 ± 24	41.4 ± 31	21.8 ± 26			
CCOC(=O)CCC(=O)OCC [diethyl succinate]	60.9 ± 22	57.7 ± 24	53.4 ± 30	44.4 ± 30	70.6 ± 24	47.1 ± 29						
COc1ccccc1OC(=O)Cc1ccccc1 [Guaiacyl phenylacetate]	42.2 ± 29	37.2 ± 28	58.5 ± 28	45.1 ± 32	71.5 ± 22	60.8 ± 28						
CCc1ccc(O)c(OC)c1 [4-Ethylguaiacol]		41.7 ± 27		57.6 ± 32		78 ± 17	43.8 ± 24	52.1 ± 32	69.4 ± 23			
O=Cc1ccc2c(c1)OCO2 [piperonal]	70.9 ± 23	72 ± 20	64.5 ± 27	54.6 ± 30	69.3 ± 22	42.5 ± 29						
CCCC(O)CC(=O)OCC (stereo unspecified) [ethyl-3-hydroxyhexanoate]		47.3 ± 27		54.2 ± 28		60.3 ± 24	54.4 ± 23	40.1 ± 31	25.1 ± 27			
CCCCCCCCCO [nonanol]		35.8 ± 24		46.9 ± 29		66.4 ± 26	42.9 ± 25	35.6 ± 31	28.5 ± 30			
CO [methanol]	39.5 ± 23	42.7 ± 22	37.9 ± 29	30.9 ± 25	35 ± 30	18 ± 24						
CCc1nccnc1C [2-Ethyl-3-methylpyrazine]		31.2 ± 26		55.7 ± 32		82.1 ± 17	43.9 ± 29	60 ± 31	70.5 ± 21			
COc1ccc2ccccc2c1 [Nerolin Yara Yara]	54.3 ± 29	61.6 ± 26	59.7 ± 28	58 ± 26	82.7 ± 15	71.5 ± 22						
N[C@@H](Cc1ccccc1)C(=O)O [L-Phenylalanine]	39.9 ± 28	44.3 ± 29	39.1 ± 28	33.7 ± 31	34.4 ± 33	30.1 ± 30						
CCCCC/C=C\CCCO [cis-4-Decen-1-ol]		49.2 ± 25		49.8 ± 29		65.4 ± 26	53.6 ± 27	40.3 ± 32	29.2 ± 32			

Structure (SMILES)	perceived odor pleasantness rating [1, 4]	perceived odor pleasantness rating [1, 5]	perceived odor familiarity rating [2, 4]	perceived odor familiarity rating [2, 5]	perceived odor intensity rating [3, 4]	perceived odor intensity rating [3, 5]	perceived odor pleasantness rating [1, 6]	perceived odor familiarity rating [2, 6]	perceived odor intensity rating [3, 6]	perceived odor pleasantness rating [1, 7]	perceived odor familiarity rating [2, 7]	perceived odor intensity rating [3, 7]
CCCCCC/C=C/C(C)=O [3-Decen-2-one]		33.9 ± 22		42.5 ± 28		65.4 ± 25	46.8 ± 18	27.1 ± 21	21.6 ± 23			
CCCCC(C)CCC(=O)O (racemic) [(±)-4-Methyloctanoic acid]	27.4 ± 25	29 ± 20	41.7 ± 32	48.6 ± 30	72.5 ± 25	67.2 ± 25						
NC(Cc1ccccc1)C(=O)O (racemic) [DL-Phenylalanine (replicate)]	44.6 ± 25	50.4 ± 23	48.2 ± 29	39.2 ± 26	66.3 ± 24	39.2 ± 29						
CSCCCN=C=S [3-(Methylthio)propyl isothiocyanate]		25.2 ± 26		49.7 ± 32		82.7 ± 21	34.3 ± 27	47.6 ± 30	62.5 ± 29			
CCCCCCO [hexanol]		58.2 ± 27		58.7 ± 28		61.5 ± 29	49.4 ± 26	42.7 ± 27	26 ± 27			
CCC1(O)C2(C)CCC(C2)C1(C)C (stereo unspecified) [2-Ethylfenchol]		37.2 ± 27		58.9 ± 33		73.6 ± 27	45.5 ± 25	47.7 ± 35	39.1 ± 34			
Cc1ncsc1CCO [4-Methyl-5-thiazoleethanol]		29.6 ± 25		56.7 ± 32		73.1 ± 20	37.8 ± 24	39.9 ± 28	48.6 ± 29			
C=C(C)C1CC=C(C)C(=O)C1 (single isomer, unassigned; (-)) [(-)-Carvone]	78.6 ± 16	78.2 ± 19	81.2 ± 24	77.9 ± 25	84.3 ± 15	72.6 ± 20						
CCO [ethanol]		60.9 ± 23		41.4 ± 31		19.5 ± 28	49.6 ± 23	34.1 ± 28	14.2 ± 18			
CC1CCCC(=O)C1 (stereo unspecified) [3-Methylcyclohexanone]		45.5 ± 30		53.2 ± 34		71 ± 28	41.7 ± 22	34 ± 27	39.3 ± 34			
c1ccc(-c2ccccc2)cc1 [Biphenyl]	31.3 ± 24	51.4 ± 21	42.5 ± 33	36.2 ± 28	77.6 ± 20	31.7 ± 26						
S=C=NCCc1ccccc1 [2-Phenylethyl isothiocyanate]		21.3 ± 21		47 ± 31		75.5 ± 20	37.7 ± 26	41.3 ± 28	38.2 ± 30			
CCSSCC [Diethyl disulfide]		21.3 ± 27		52.5 ± 35		85.9 ± 16	28.4 ± 24	51.2 ± 32	60.6 ± 34			
CC1=CC(=O)CC(C)(C)C1=O [4-Oxoisophorone]		47.7 ± 25		49.7 ± 28		49.2 ± 26	55 ± 21	44.2 ± 28	34 ± 28			
Cc1ccccc1C=O [o-Tolualdehyde]		52.7 ± 30		58.9 ± 32		78.1 ± 21	60.2 ± 24	49.1 ± 31	37.2 ± 31			
C/C=C(\C)C(=O)OCC/C=C\CC [cis-3-Hexenyl tiglate]	47.2 ± 31	47.6 ± 28	53.4 ± 31	47.9 ± 30	79.2 ± 18	45.7 ± 30						
CCCCC(CC)CO (stereo unspecified) [2-ethyl-1-hexanol]		19.4 ± 22		42.1 ± 30		79.7 ± 19	25.9 ± 23	43.6 ± 31	51.2 ± 34			
CCOC(C)OCC [Acetal]		42.5 ± 24		44.7 ± 28		48.7 ± 34	47.9 ± 22	35.2 ± 28	43.1 ± 33			
